Measured values taken from patent US5891896A, “Tri-substituted phenyl derivatives useful as PDE IV inhibitors” (Celltech Therapeutics Ltd., priority 1995, dated 1999).
Structures can show the parent of a compound that is named as a salt.

Tests used:
human PDE IVA = molecular target: T1, human PDE IVA (Homo sapiens, UniProt P27815); test: Isolated recombinant human PDE IVA enzyme, inhibition of phosphodiesterase activity ([3H]-cAMP); format: biochemical; details: 0.1 μM [3H]-cAMP, pH 7.5, 30° C.
T1 construct: made in house; host or cells: yeast (inducible vector)
T1 sequence (P27815 whole entry): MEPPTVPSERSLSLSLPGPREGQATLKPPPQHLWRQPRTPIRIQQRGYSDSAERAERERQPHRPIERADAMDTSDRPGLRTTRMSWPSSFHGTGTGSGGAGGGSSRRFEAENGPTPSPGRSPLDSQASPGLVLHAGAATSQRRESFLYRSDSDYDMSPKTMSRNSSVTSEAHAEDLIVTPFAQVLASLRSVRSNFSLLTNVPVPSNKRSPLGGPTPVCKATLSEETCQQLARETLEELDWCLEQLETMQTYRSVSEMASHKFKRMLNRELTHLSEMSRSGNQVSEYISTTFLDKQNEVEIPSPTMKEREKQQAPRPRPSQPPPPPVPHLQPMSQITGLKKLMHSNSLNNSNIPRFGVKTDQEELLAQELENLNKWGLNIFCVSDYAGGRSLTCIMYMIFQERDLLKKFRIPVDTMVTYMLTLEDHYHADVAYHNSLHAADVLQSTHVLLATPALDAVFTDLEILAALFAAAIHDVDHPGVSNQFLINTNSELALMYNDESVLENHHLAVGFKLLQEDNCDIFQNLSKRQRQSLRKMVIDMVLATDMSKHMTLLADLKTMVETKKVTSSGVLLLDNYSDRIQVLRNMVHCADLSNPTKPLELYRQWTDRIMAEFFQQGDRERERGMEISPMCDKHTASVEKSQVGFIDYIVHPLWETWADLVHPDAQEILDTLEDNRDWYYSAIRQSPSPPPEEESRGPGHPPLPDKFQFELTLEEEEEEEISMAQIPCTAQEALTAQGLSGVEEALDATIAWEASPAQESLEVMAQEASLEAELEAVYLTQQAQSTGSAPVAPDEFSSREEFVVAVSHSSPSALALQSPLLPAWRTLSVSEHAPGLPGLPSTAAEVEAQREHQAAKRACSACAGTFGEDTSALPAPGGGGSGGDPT
Excerpt: 1. Isolated Recombinant Human PDE IVA Enzyme
A gene encoding human PDE IV has been cloned from human monocytes (Livi, et al., 1990, Molecular and Cellular Biology, 10, 2678). Using similar procedures we have cloned human PDE IV genes from a number of sources including eosinophils, neutrophils, lymphocytes, monocytes, brain and neuronal tissues. These genes have been transfected into yeast using an inducible vector and various recombinant proteins have been expressed which have the biochemical characteristics of PDE IV (Beavo and Reifsnyder, 1990, TIPS, 11, 150). These recombinant enzymes, particularly the human eosinophil recombinant PDE IVA, have been used as the basis of a screen for potent, selective PDE IV inhibitors.
The enzymes were purified to isoenzyme homogeneity using standard chromatographic techniques.
Phosphodiesterase activity was assayed as follows. The reaction was conducted in 150 μl of standard mixture containing (final concentrations): 50 mM 2-[[tris(hydroxymethyl)methyl]amino]-1-ethanesulphonic acid (TES) --NaOH buffer (pH 7.5), 10 mM MgCl2, 0.1 μM [^3 H]-cAMP and vehicle or various concentrations of the test compounds. […] Recovery of [^3 H]-5'AMP was determined using the [^14 C]-5'AMP and all assays were conducted in the linear range of the reaction. Results were expressed as IC50 values.

rat hepatocytes = test: Rat hepatocyte metabolism (compound remaining, mass spectroscopy); format: in vitro ADME
Experimental: (§1) 2. Rat Hepatocyte Metabolism
(§2) The quantity of compound remaining after a fixed period of time was then determined using mass spectroscopy.

[1] = as above; format: in vitro ADME; details: rat hepatocytes, read-out: compound remaining at the end of the period
Experimental: as §1, §2

IC50 (human PDE IVA) | metabolism after 3 h (in words) (rat hepatocytes) | compound remaining at the end of the period (rat hepatocytes; 3 h) | remaining at 3 h [1] | Compound
34 nM | substantially unmetabolised | ≥ 80% | – | (R)-N-[4-{1-(3-(2-Indanyloxy)-4-methoxyphenyl)-2-(4-pyridyl)ethyl}phenyl]-N'-ethylurea hydrochloride [Example 3]
2 nM | substantially unmetabolised | – | ≥ 80% | COc1ccc([C@H](Cc2ccncc2)c2cccc(NS(=O)(=O)c3ccccc3)c2)cc1OC1Cc2ccccc2C1 [Example 2, hydrochloride]
